Tests used:
[1] = molecular target: T1, human ether-a-go-go related gene (hERG) channel (Homo sapiens, UniProt Q12809); assay: hERG test, whole cell patch clamp; type: cell-based; conditions: HEK293 cells expressing hERG channel
T1 construct: expressed in transfected cells; host or cells: HEK293
Source text: For the purpose of assessing risk of an electrocardiogram QT interval prolongation, effects on delayed rectifier K+ current (IKr), which plays an important role in the ventricular repolarization process of the compound of the present invention, was studied using HEK293 cells expressing human ether-a-go-go related gene (hERG) channel.
After a cell was retained at a membrane potential of −80 mV by whole cell patch clamp method using an automated patch clamp system (PatchXpress 7000A, Axon Instruments Inc.), IKr induced by depolarization pulse stimulation at +40 mV for 2 seconds and, further, repolarization pulse stimulation at −50 mV for 2 seconds was recorded. […] From the recording IKr, an absolute value of the tail peak current was measured based on the current value at the resting membrane potential using an analysis software (DataXpress ver. 1, Molecular Devices Corporation). Further, the inhibition relative to the tail peak current before application of the test substance was calculated, and compared with the vehicle-applied group (0.1% dimethyl sulfoxide solution) to assess influence of the test substance on IKr.

[2] = molecular target: T2, CYP2C19 (Homo sapiens, UniProt P33261); assay: CYP inhibition assay, mephenytoin 4'-hydroxylation; type: in vitro ADME; conditions: pooled human liver microsomes, probe S-mephenytoin (4'-hydroxylation), 50 μmol/L, pooled human hepatic microsome
T2 construct: enzyme, pooled human hepatic microsome 0.2 mg protein/mL; from tissue; host or cells: pooled human liver microsomes
T2 sequence (P33261 whole entry): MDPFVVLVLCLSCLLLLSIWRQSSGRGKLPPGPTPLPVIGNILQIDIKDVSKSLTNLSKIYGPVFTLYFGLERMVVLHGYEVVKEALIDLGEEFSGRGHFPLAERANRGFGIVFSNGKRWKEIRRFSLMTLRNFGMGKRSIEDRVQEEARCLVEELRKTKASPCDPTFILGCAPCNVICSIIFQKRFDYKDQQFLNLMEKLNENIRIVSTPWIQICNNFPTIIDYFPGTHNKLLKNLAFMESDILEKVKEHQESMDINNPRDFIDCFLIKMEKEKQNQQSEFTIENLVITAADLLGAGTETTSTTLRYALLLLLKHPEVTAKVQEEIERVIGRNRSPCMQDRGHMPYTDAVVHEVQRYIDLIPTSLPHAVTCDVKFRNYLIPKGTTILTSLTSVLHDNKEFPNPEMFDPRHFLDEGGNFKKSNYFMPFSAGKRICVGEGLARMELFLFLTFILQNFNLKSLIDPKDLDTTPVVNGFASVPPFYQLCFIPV
Method: (§1) Using commercially available pooled human hepatic microsome, and employing, as markers, 7-ethoxyresorufin O-deethylation (CYP1A2), tolbutamide methyl-hydroxylation (CYP2C9), mephenytoin 4′-hydroxylation (CYP2C19), dextromethorphan O-demethylation (CYP2D6), and terfenedine hydroxylation (CYP3A4) as typical substrate metabolism reactions of human main five CYP enzyme forms (CYP1A2, 2C9, 2C19, 2D6, 3A4), an inhibitory degree of each metabolite production amount by a test compound was assessed.
(§2) The reaction conditions were as follows: substrate, 0.5 μmol/L ethoxyresorufin (CYP1A2), 100 μmol/L tolbutamide (CYP2C9), 50 μmol/L S-mephenytoin (CYP2C19), 5 μmol/L dextromethorphan (CYP2D6), 1 μmol/L terfenedine (CYP3A4); reaction time, 15 minutes; reaction temperature, 37° C.; enzyme, pooled human hepatic microsome 0.2 mg protein/mL; test drug concentration, 1, 5, 10, 20 μmol/L (four points).
(§3) Each five kinds of substrates, human hepatic microsome, and a test drug in 50 mmol/L Hepes buffer as a reaction solution was added to a 96-well plate as the composition as described above, NADPH, as a cofactor was added to initiate metabolism reactions as markers and, after the incubation at 37° C. for 15 minutes, a methanol/acetonitrile=1/1 (v/v) solution was added to stop the reaction. After the centrifugation at 3000 rpm for 15 minutes, resorufin (CYP1A2 metabolite) in the supernatant was quantified by a fluorescent multilabel counter and tolbutamide hydroxide (CYP2C9 metabolite), mephenytoin 4′ hydroxide (CYP2C19 metabolite), dextrorphan (CYP2D6 metabolite), and terfenadine alcohol (CYP3A4 metabolite) were quantified by LC/MS/MS.
(§4) A reaction system containing only DMSO which is a solvent for dissolving a drug was adopted as a control (100%), and the remaining activity (%) was calculated, then IC50 was calculated by reverse presumption with a logistic model using a concentration and an inhibition rate.

[3] = Metabolism stability test, rat liver microsomes; type: in vitro ADME; conditions: amount at 0 minute = 100%
[4] = tested on: Salmonella typhimurium TA98 strain, TA100 strain; type: cell-based; conditions: Salmonella typhimurium TA98, TA100, non-metabolism and metabolism activating condition
Method: The mutagenicity of the compound of the present invention was assayed.
20 μL of freezing-stored rat typhoid bacillus (Salmonella typhimurium TA98 strain, TA100 strain) was inoculated on 10 mL of a liquid nutrient medium (2.5% Oxoid nutrient broth No. 2), and this was cultured before shaking at 37° C. for 10 hours. 9 mL of a bacterial solution of the TA98 strain was centrifuged (2000×g, 10 minutes) to remove a culturing solution. The bacteria was suspended in F buffer (K2HPO4: 3.5 g/L, KH2PO4: 1 g/L, (NH4)2SO4: 1 g/L, trisodium citrate dehydrate: 0.25 g/L, MgSO4.7H2O: 0.1 g/L), and the suspension was added to 110 mL of an Exposure medium (Micro F buffer containing Biotin: 8 μg/mL, histidine: 0.2 μg/mL, glucose: 8 mg/mL). The TA100 strain was added to 120 mL of the Exposure medium per 3.16 mL of the bacterial solution to prepare a test bacterial solution. […] of a test substance DMSO solution (several stage dilution from maximum dose 50 mg/mL at 2- to 3-fold ratio), DMSO as a negative control, 50 μg/mL of 4-nitroquinoline-1-oxide DMSO solution for the TA98 strain, 0.25 μg/mL of 2-(2-furyl)-3-(5-nitro-2-furyl)acrylamide DMSO solution for the TA100 strain each under the non-metabolism activating condition, 40 μg/mL of 2-aminoanthracene DMSO solution for the TA98 strain, 20 μg/mL of 2-aminoanthracene DMSO solution for the TA100 strain each under the metabolism activating condition all as a positive control, and 588 μL of the test bacterial solution (a mixed solution of 498 μL of the test bacterial solution and 90 μL of S9 mix under the metabolism activating condition) were mixed, and this was shaking-cultured at 37° C. for 90 minutes. […] Since a well containing a bacterium which has obtained the proliferation ability by mutation of an amino acid (histidine) synthesizing enzyme gene turns from purple to yellow due to a pH change, the bacterium proliferation well which has turned to yellow in 48 wells per dose is counted, and was assessed by comparing with a negative control group. […]

[5] = molecular target: T3, CYP2D6 (Homo sapiens, UniProt P10635); assay: CYP inhibition assay, dextromethorphan O-demethylation; type: in vitro ADME; conditions: pooled human liver microsomes, probe dextromethorphan (O-demethylation), 5 μmol/L, pooled human hepatic microsome
T3 construct: enzyme, pooled human hepatic microsome 0.2 mg protein/mL; from tissue; host or cells: pooled human liver microsomes
T3 sequence (P10635 whole entry): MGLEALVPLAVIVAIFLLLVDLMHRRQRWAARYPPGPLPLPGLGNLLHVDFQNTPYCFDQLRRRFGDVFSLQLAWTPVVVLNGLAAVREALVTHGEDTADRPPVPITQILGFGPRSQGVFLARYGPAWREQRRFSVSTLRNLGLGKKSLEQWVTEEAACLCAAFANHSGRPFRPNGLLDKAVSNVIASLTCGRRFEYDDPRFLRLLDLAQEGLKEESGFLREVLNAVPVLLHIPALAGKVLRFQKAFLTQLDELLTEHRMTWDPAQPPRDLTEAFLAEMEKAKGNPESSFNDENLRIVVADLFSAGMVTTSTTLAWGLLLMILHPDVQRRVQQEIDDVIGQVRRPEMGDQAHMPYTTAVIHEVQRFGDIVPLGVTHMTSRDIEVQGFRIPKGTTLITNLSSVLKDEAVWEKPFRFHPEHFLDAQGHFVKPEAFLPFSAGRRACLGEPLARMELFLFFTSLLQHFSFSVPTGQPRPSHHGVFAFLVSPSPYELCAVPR
Method: as §1, §2, §3, §4

T1 sequence (Q12809 whole entry): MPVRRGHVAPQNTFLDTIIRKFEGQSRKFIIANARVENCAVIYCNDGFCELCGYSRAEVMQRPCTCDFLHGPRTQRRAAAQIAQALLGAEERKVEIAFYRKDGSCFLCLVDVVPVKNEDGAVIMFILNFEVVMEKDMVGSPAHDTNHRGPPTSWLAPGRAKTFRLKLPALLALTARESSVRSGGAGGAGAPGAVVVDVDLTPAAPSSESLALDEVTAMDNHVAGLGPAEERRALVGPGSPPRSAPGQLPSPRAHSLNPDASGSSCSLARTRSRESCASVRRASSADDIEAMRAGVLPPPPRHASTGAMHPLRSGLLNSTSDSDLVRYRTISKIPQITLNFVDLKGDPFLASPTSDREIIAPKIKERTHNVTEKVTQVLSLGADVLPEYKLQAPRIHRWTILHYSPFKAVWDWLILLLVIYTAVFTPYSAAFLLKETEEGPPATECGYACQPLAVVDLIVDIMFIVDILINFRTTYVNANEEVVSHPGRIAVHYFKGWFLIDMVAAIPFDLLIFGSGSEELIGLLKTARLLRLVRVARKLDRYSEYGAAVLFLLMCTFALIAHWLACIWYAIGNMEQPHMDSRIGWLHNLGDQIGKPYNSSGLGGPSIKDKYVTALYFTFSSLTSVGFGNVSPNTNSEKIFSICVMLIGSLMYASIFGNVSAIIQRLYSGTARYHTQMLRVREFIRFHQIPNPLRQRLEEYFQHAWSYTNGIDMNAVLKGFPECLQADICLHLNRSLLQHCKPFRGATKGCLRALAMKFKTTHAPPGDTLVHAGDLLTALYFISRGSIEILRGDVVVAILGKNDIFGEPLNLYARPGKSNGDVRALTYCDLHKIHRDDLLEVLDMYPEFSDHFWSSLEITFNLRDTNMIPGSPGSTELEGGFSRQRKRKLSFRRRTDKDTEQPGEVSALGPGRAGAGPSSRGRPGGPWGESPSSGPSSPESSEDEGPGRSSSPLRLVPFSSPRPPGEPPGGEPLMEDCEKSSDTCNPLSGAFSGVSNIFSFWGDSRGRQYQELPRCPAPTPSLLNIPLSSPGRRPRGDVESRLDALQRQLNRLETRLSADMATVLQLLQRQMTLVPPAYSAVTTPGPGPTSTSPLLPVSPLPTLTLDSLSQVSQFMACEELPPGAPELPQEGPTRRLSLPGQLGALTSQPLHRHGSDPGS

Question: With `CC(=O)Nc1c(C)c(C(OC(C)(C)C)C(=O)O)c(-c2ccc(C)c(C)c2)c(C)c1-c1ccc(C)c(C)c1` (centres unmarked) [Compound I-6] as the compound, how does the “inhibition ratio of IKr tail peak current” value [1] read?
Answer: Its value is 3.5%.

Question: What about the IC50 at 15 min [2] of the same compound?
Answer: Its IC50 at 15 min is at least 20 µM.

Question: What about the “remaining amount of compound in liver microsomes of rat” value [3] of the same compound?
Answer: Its value is 58%.

Question: And the mutagenicity [4]?
Answer: Its mutagenicity is “negative”.

Question: What about the IC50 at 15 min [5] of the same compound?
Answer: Its IC50 at 15 min is at least 20 µM.

Reference: US9199959B2, “HIV replication inhibitor” (Shionogi & Co., Ltd., priority 2011, dated 2015)
